Test results published in patent US20130224754A1, “METHOD FOR THE SELECTION OF COMPOUNDS USEFUL FOR THE TREATMENT OF PSYCHIATRIC AND NEURODEGENERATIVE DISEASES” (UNIVERSITA' DEGLI STUDI DI TRIESTE, priority 2010, published 2013).
Values belong to the molecule of their own block, whether it stands above or below them.

What was measured:
[1] = test system: BDNF 5′UTR splice variants; test: Dual luciferase assay, response of BDNF 5′UTR splice variants to agonists (collective statements); conditions: undifferentiated SH-SY5Y; for translation of the other BDNF transcripts (other than exon2C): DHPG 50 μM, AMPA 30 μM, NMDA 30 μM
Description: (§3) Plasmids were transfected into SH-SY5Y cells using lipofectamine 2000 (Invitrogen) to obtain a transient transfection. The relative quantity of DNA to lipofectamine has been determined and the optimal ratio was found at 0.2 μg of DNA and 0.5 μl of lipofectamine for each well of a 96 multiwell plate. At the time of transfection SH-SY5Y cells were around 70-75% of confluency. According to the Promega protocol for luciferase activity measurements, each construct-containing Fluc was transfected together with the normalizing Rluc construct with a 10:1 ratio (0.2 μg Fluc containing vector together with 0.02 μg of pN1-Rluc vector). The DNA (0.2 μg) was mixed with 25 μl of native MEM medium and incubated for 5 minutes at room temperature. The two solutions were then mixed and incubated for 20 minutes at room temperature to allow the formation of DNA-containing micelles. Then, 50 μl of such solution were added in each well to cells and incubated for 24 h at 37° C. After 24 h transfection, the medium was removed and replaced with fresh culture medium.
(§4) To determine the effects of receptors activation on translation controlled by the different BDNF 5′UTR sequences, cells were treated for 3 hours with 50 mM KCl to induce generalized cell depolarization.
(§5) Luciferase assay was performed according to the manufacturer's instructions (Promega). At the time of luciferase assay, the growth medium was removed from the cultured cells and a sufficient volume of PBS 1× was applied to wash the surface of the culture vessel. Then, the PBS 1× solution was completely removed and the cells lysis was started by adding 20 μl of PLB (passive lysis buffer) into each well. After adding the PLB solution, the culture plate was placed on an orbital shaker with gentle shaking at room temperature for 15 minutes to cover uniformly the cell monolayer with PLB. After lysis, 100 μl of Luciferase Assay Reagent II (LARII) were dispensed in each well and Firefly luciferase activity was measured using the Glo Max Multi luminometer with two injectors (Promega Corporation).
(§6) After quantifying the Firefly luminescence, this reaction was quenched and simultaneously, the Renilla luciferase reaction was initiated by adding 100 μl Stop & Glo Reagent (Promega) to the same well. Then, Renilla luciferase activity was measured using the Glo Max Multi luminometer with two injectors (Promega Corporation).
(§7) One day prior transfection, undifferentiated neuro-blastoma SH-SY5Y cells were seeded into a 96-well white plate with clear bottom (PBI International) at a confluency of 50-60% and cultured overnight. Plasmids containing the different BDNF 5′UTR exons were then transiently transfected into SH-SY5Y cells using Lipofectamine™ 2000 (Invitrogen) at high cell density (70-75%), according to the manufacturer's protocol. […]

[2] = test system: pN1-exon6-Fluc-3′UTR long construct; test: Inhibition of KCl-induced translation of the ex6-Fluc-3′UTRlong construct; assay type: cell-based, rat; conditions: for prevention of KCl-induced increase in translation of pN1-exon6-Fluc-3′UTR long: 30 min pre-treatment prior 3 h 20 mM KCl, rapamycin 20 nM, U0126 50 μM, KN62 20 μM, GF 50 nM, Aurora A inhibitor 10 μM, PP2 20 μM
Source text: The present invention can be used not only to identify compounds able to increase BDNF translation, but also to screen for potential inhibitors of BDNF protein production. To this aim a series of vectors were constructed which recapitulate the physiological regulation of BDNF translation in that the firefly luciferase gene was flanked both by 5′UTR regions as well as 3′UTR. These constructs included:
Inhibitors of 5′UTR regulation are: rapamycin (rap)=mTOR inhibitor (Takei, Inamura et al. 2004); U0126=MEK inhibitor (Kanhema, Dagestad et al. 2006); GF=PKC inhibitor (Heikkila, Jalava et al. 1993).
Inhibitors of 3′UTR regulation: KN62=CaMKII inhibitor (Lu, Hidaka et al. 1996); AuA=Aurora A inhibitor (Soncini, Carpinelli et al. 2006) and PP2=Src tyrosine kinase inhibitor (Perkinton, Sihra et al. 1999).
Aurora kinase A inhibitor (PHA-680632) was a gift from Nerviano Medical Sciences S.r.l. (Milan, Italy); PP2 (1-tert-butyl-3-(4-chlorophenyl)-1H-pyrazolo[3-4]pyrimidin-4-amine), rapamycin was purchased from Ascent Scientific (Bristol, UK), Bisindolylmaleimide I (2-[1-(3-dimethylaminopropyl)-1H-indol-3-yl]-3-(1H-indol-3yl)-maleimide, GF 109203X, Gö 6850), KN62 (1-[N,O-bis-5-isoquinolinesulfonyl)-N-methyl-L-tyrosyl]-4-phenylpiperazine), U0126 (1,4-diamino-2,3-dicyano-1,4-bis(2-aminophenylthio)butadiene), and U0124 (1,4-Diamino-2,3-dicyano-1,4-bis(methylthio)butadiene) from Calbiochem (Damstadt, Germany).
Relative luciferase units (RLU) describe in absolute values for the Fluc/Rluc (F/R) ratio obtained from each condition—basal, 3 h of 20 mM KCl, 30 min of treatment—rapamycin 20 nM, U0126 50 μM, KN62 20 μM, GF 50 nM, Aurora A inhibitor 10 μM or PP2 20 μM, prior 3 h of depolarization. A value of 1.0 was assumed for the basal condition. The represented data (mean+standard error) corresponds to three independent experiments in quadruplicate ***, P<0.001; **, P<0.01; *, P<0.05, One Way Anova followed by a multiple comparison versus Fluc construct procedure with Holm-Sidak's method.

[3] = test system: SH-SY5Y human neuroblastoma cells; test: MTT viability assay; assay type: cell-based; conditions: 3 h; ACh 10 μM, NE 50 uM, DOPA 40 μM, BDNF and NT3 both 50 ng/ml
Description: Using a 96-well plate 100 μl of SHSY-5Y cells were distributed per well, maintaining them overnight at 37° C. in a 5% CO2-humified incubator. […] After that, 20 μl of aseptically prepared 5 mg/mL MTT was added, adding it also to an additional quadruplicate of wells without cells, as an internal control. The cells were again incubated at 37° C. this time for 2 h, allowing the formation of formazan crystals by the mitochondrial dehydrogenase of viable cells. Afterwards, the media was carefully removed, and the formazan crystals were solubilised by adding 200 μl of MTT solvent per well, a solution that contains acidified isopropanol (4 mM HCl and 0.1% Nondet P-40 in isopropanol). The crystals were further dissolved by gently pipetting the solution up and down being the resulting purple solution spectrophotometrically measured at 570 nm. An increased absorbance can therefore be directly correlated to the cell number, allowing one to determine the cellular viability after a specific treatment. Since the method is dependent on the physiological state of the cells, the assay was always performed after checking the cellular morphology prior treatment. Moreover, two controls were performed: (1) untreated cells, an internal control to verify the drug-dependent effect; and (2) KCl 200 mM treated cells, in which a cytotoxic concentration was used, thus allowing us to verify the assay fidelity.

rat BDNF 5′UTR exon 8 = test: Dual luciferase assay, pN1-exon8-Fluc in SH-SY5Y cells; assay type: cell-based; conditions: undifferentiated SH-SY5Y; BDNF 50 ng/ml, GLU 20 μM, 5-HT 50 μM
Description: (§8) Plasmids were transfected into SH-SY5Y cells using lipofectamine 2000 (Invitrogen) to obtain a transient transfection. The relative quantity of DNA to lipofectamine has been determined and the optimal ratio was found at 0.2 μg of DNA and 0.5 μl of lipofectamine for each well of a 96 multiwell plate. At the time of transfection SH-SY5Y cells were around 70-75% of confluency. According to the Promega protocol for luciferase activity measurements, each construct-containing Fluc was transfected together with the normalizing Rluc construct with a 10:1 ratio (0.2 μg Fluc containing vector together with 0.02 μg of pN1-Rluc vector). The DNA (0.2 μg) was mixed with 25 μl of native MEM medium and incubated for 5 minutes at room temperature. […]
(§9) Luciferase assay was performed according to the manufacturer's instructions (Promega). […] After lysis, 100 μl of Luciferase Assay Reagent II (LARII) were dispensed in each well and Firefly luciferase activity was measured using the Glo Max Multi luminometer with two injectors (Promega Corporation).
(§10) After quantifying the Firefly luminescence, this reaction was quenched and simultaneously, the Renilla luciferase reaction was initiated by adding 100 μl Stop & Glo Reagent (Promega) to the same well. Then, Renilla luciferase activity was measured using the Glo Max Multi luminometer with two injectors (Promega Corporation). […]

rat BDNF 5′UTR exon 1 = test: Dual luciferase assay, pN1-exon1-Fluc in SH-SY5Y cells; assay type: cell-based; conditions: undifferentiated SH-SY5Y, 24 h after transfection; KCL 50 mM, BDNF 50 ng/ml, GLU 20 μM, NE 50 μM
Description: as §3, §4, §5, §6, §7

BDNF 3′UTR-short = test: Luciferase assay, pN1-Fluc-3′short in SH-SY5Y cells; assay type: cell-based, rat; conditions: transfected SHSY-5Y; GLU 20 μM
Description: (§1) Basal and drug-induced translation of a luciferase reporter gene driven by BDNF short and long 3′UTR or coding region (CDS) sequences were measured.
(§2) BDNF ([…]) was specifically employed for the stimulation of the 3′UTR long containing plasmid and NT3 ([…]) for 3′UTR short containing plasmid.

rat BDNF 5′UTR exon 2B = test: Dual luciferase assay, pN1-exon2B-Fluc in SH-SY5Y cells; assay type: cell-based; conditions: undifferentiated SH-SY5Y, 24 h after transfection; KCL 50 mM, BDNF 50 ng/ml, GLU 20 μM, NE 50 μM
Description: as §3, §4, §5, §6, §7

rat BDNF 5′UTR exon 2C = test: Dual luciferase assay, pN1-exon2C-Fluc in SH-SY5Y cells; assay type: cell-based; conditions: undifferentiated SH-SY5Y; GLU 20 μM, NMDA 30 μM, NE 50 μM
Description: as §3, §4
Luciferase assay was performed according to the manufacturer's instructions (Promega). At the time of luciferase assay, the growth medium was removed from the cultured cells and a sufficient volume of PBS 1× was applied to wash the surface of the culture vessel. […] After lysis, 100 μl of Luciferase Assay Reagent II (LARII) were dispensed in each well and Firefly luciferase activity was measured using the Glo Max Multi luminometer with two injectors (Promega Corporation).
as §10

rat BDNF 5′UTR exon 4 = test: Dual luciferase assay, pN1-exon4-Fluc in SH-SY5Y cells; assay type: cell-based; conditions: undifferentiated SH-SY5Y; KCL 50 mM, BDNF 50 ng/ml, GLU 20 μM, NE 50 μM, 5-HT 50 μM
Description: as §3, §4, §5, §6, §7

rat BDNF 5′UTR exon 3 = test: Dual luciferase assay, pN1-exon3-Fluc in SH-SY5Y cells; assay type: cell-based; conditions: undifferentiated SH-SY5Y; KCL 50 mM
Description: as §8, §9, §10

BDNF 3′UTR-long = test: Luciferase assay, pN1-Fluc-3′long in SH-SY5Y cells; assay type: cell-based, rat; conditions: transfected SHSY-5Y; KCl 50 mM, GLU 20 μM, DHPG 50 μM, AMPA 30 μM, NMDA 30 μM, AcH 30 μM, NE 50 μM, DOPA 40 μM, 5-HT 50 μM, BDNF 50 ng/μl
Description: as §1, §2

rat BDNF 5′UTR exon 7 = test: Dual luciferase assay, pN1-exon7-Fluc in SH-SY5Y cells; assay type: cell-based; conditions: undifferentiated SH-SY5Y; NE 50 μM
Description: as §8, §9, §10

Molecule: Cc1o[nH]c(=O)c1CC(N)C(=O)O (centres unmarked) [AMPA]
translation of the other BDNF transcripts (other than exon2C) [1]: not stimulated

Molecule: CCc1cccc(CC)c1NC(=O)N1Cc2n[nH]c(NC(=O)c3ccc(N4CCN(C)CC4)cc3)c2C1 [Aurora A inhibitor, PHA-680632]
prevention of KCl-induced increase in translation of pN1-exon6-Fluc-3′UTR long [2]: completely prevents

translation of the other BDNF transcripts (other than exon2C) [1]: not stimulated
Molecule: N[C@H](C(=O)O)c1cc(O)cc(O)c1 [DHPG]

Molecule: NCCc1ccc(O)c(O)c1 [Dopamine]
cell survival (MTT viability), neurotrophic effect [3]: small increase in cell survival

Molecule: CN(C)CCCn1cc(C2=C(c3c[nH]c4ccccc34)C(=O)NC2=O)c2ccccc21 [GF, 2-[1-(3-dimethylaminopropyl)-1H-indol-3-yl]-3-(1H-indol-3yl)-maleimide]
prevention of KCl-induced increase in translation of pN1-exon6-Fluc-3′UTR long [2]: not

Molecule: N[C@@H](CCC(=O)O)C(=O)O [Glutamate, Glutammate]
response of exon 8-containing plasmid (ratio F-luc/R-Luc) (rat BDNF 5′UTR exon 8): responsive
translation of exon1-containing transcripts (ratio F-luc/R-Luc) (rat BDNF 5′UTR exon 1): significantly increase
translation of 3′UTR-short-containing transcripts (BDNF 3′UTR-short): striking increase
translation of exon 2B-containing transcripts (ratio F-luc/R-Luc) (rat BDNF 5′UTR exon 2B): significantly increase
expression of exon 2C containing plasmid (ratio F-luc/R-Luc) (rat BDNF 5′UTR exon 2C): able to induce the expression
translation of exon 4-containing transcripts (ratio F-luc/R-Luc) (rat BDNF 5′UTR exon 4): significantly increase

Molecule: [Cl-].[K+] [KCl]
expression of exon 3-containing plasmid (ratio F-luc/R-Luc) (rat BDNF 5′UTR exon 3): induced
translation of 3′UTR-long-containing transcripts (BDNF 3′UTR-long): slightly but not significant increase
increase in translation of pN1-exon6-Fluc-3′UTR long (Fluc/Rluc ratio, basal = 1.0) ([2]; end of 3 h depolarization with 20 mM KCl): three-fold increase
translation of exon1-containing transcripts (ratio F-luc/R-Luc) (rat BDNF 5′UTR exon 1): significantly increase
translation of exon 2B-containing transcripts (ratio F-luc/R-Luc) (rat BDNF 5′UTR exon 2B): significantly increase
translation of exon 4-containing transcripts (ratio F-luc/R-Luc) (rat BDNF 5′UTR exon 4): significantly increase

Molecule: CN([C@@H](Cc1ccc(OS(=O)(=O)c2cccc3cnccc23)cc1)C(=O)N1CCN(c2ccccc2)CC1)S(=O)(=O)c1cccc2cnccc12 [KN62]
prevention of KCl-induced increase in translation of pN1-exon6-Fluc-3′UTR long [2]: completely prevents

Molecule: CN[C@H](CC(=O)O)C(=O)O [NMDA]
translation of the other BDNF transcripts (other than exon2C) [1]: not stimulated
expression of exon 2C containing plasmid (ratio F-luc/R-Luc) (rat BDNF 5′UTR exon 2C): enhancement

Molecule: NC[C@H](O)c1ccc(O)c(O)c1 [Norepinephrine]
cell survival (MTT viability), neurotrophic effect [3]: small increase in cell survival
exon7 reporter expression (ratio F-luc/R-Luc) (rat BDNF 5′UTR exon 7): increased
translation of exon1-containing transcripts (ratio F-luc/R-Luc) (rat BDNF 5′UTR exon 1): significantly increase
translation of exon 2B-containing transcripts (ratio F-luc/R-Luc) (rat BDNF 5′UTR exon 2B): significantly increase
expression of exon 2C containing plasmid (ratio F-luc/R-Luc) (rat BDNF 5′UTR exon 2C): increased
translation of exon 4-containing transcripts (ratio F-luc/R-Luc) (rat BDNF 5′UTR exon 4): significantly increase

Molecule: CC(C)(C)n1nc(-c2ccc(Cl)cc2)c2c(N)ncnc21 [PP2, 1-tert-butyl-3-(4-chlorophenyl)-1H-pyrazolo[3-4]pyrimidin-4-amine]
prevention of KCl-induced increase in translation of pN1-exon6-Fluc-3′UTR long [2]: completely prevents

translation of every BDNF exons-containing plasmid, with the exception of those containing exon 2A, 4 and 8 ([1]; 5-HT 50 μM): able to increase the translation
Molecule: NCCc1c[nH]c2ccc(O)cc12 [Serotonin]

Molecule: N#CC(=C(N)Sc1ccccc1N)C(C#N)=C(N)Sc1ccccc1N [U0126, 1,4-diamino-2,3-dicyano-1,4-bis(2-aminophenylthio)butadiene]
prevention of KCl-induced increase in translation of pN1-exon6-Fluc-3′UTR long [2]: completely prevents

B1: Brain-derived neurotrophic factor (protein, UniProt P23560 19-247, looked up)
Neurotrophic factor BDNF …: APMKEANIRGQGGLAYPGVRTHGTLESVNGPKAGSRGLTSLADTFEHVIEELLDEDQKVRPNEENNKDADLYTSRVMLSSQVPLEPPLLFLLEEYKNYLDAANMSMRVRRHSDPARRGELSVCDSISEWVTAADKKTAVDMSGGTVTVLEKVPVSKGQLKQYFYETKCNPMGYTKEGCRGIDKRHWNSQCRTTQSYVRALTMDSKKRIGWRFIRIDTSCVCTLTIKRGR
notes: growth and trophic factor of the neurotrophin family, used as agonist at 50 ng/ml
cell survival (MTT viability), neurotrophic effect [3]: small increase in cell survival
response of exon 8-containing plasmid (ratio F-luc/R-Luc) (rat BDNF 5′UTR exon 8): responsive
translation of exon1-containing transcripts (ratio F-luc/R-Luc) (rat BDNF 5′UTR exon 1): significantly increase
translation of exon 2B-containing transcripts (ratio F-luc/R-Luc) (rat BDNF 5′UTR exon 2B): significantly increase
translation of exon 4-containing transcripts (ratio F-luc/R-Luc) (rat BDNF 5′UTR exon 4): significantly increase

B2: Neurotrophin-3 (protein, UniProt P20783 139-257, looked up)
Neurotrophin-3: YAEHKSHRGEYSVCDSESLWVTDKSSAIDIRGHQVTVLGEIKTGNSPVKQYFYETRCKEARPVKNGCRGIDDKHWNSQCKTSQTYVRALTSENNKLVGWRWIRIDTSCVCALSRKIGRT
notes: neurotrophin, used at 50 ng/ml
cell survival (MTT viability), neurotrophic effect [3]: small increase in cell survival
